The record followed here is US5225528A, “Cyclic hexapeptide oxytocin antagonists” (priority 1990, dated 1993).

The assay has as its target T1, uterine OT receptors (Rattus norvegicus, UniProt P70536).
T1 construct: from tissue; host or cells: uterus of DES-treated rats, crude membranes
T1 sequence (P70536 1-388): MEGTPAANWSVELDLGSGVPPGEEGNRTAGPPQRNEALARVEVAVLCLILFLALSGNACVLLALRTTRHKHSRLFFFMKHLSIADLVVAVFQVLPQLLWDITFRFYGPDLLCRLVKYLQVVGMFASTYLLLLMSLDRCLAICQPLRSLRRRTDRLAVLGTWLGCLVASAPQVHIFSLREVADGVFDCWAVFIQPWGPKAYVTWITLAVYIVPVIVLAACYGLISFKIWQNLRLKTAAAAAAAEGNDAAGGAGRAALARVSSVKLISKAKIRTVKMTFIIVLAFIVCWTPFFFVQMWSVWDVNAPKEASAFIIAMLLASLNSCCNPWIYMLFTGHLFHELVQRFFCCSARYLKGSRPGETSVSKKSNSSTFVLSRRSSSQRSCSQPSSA
Description: [^3 H]OT binding to uterine OT receptors, crude membrane preparation of uteri from DES-treated rats. The following applies: for IC50: rat uterus membranes, 1 nM [^3 H]OT, read-out: Receptor Binding Results IC50 (nM) [^3 H]OT. As for the experimental part:
Competition studies were conducted at equilibrium (60 minutes; 22° C.) using 1 nM [^3 H]OT in the following assay buffer: 50 mM Tris-HCl, 5 mM MgCl2, and 0.1% BSA, pH 7.4.

Numbered stars: 1 amine (or outer) side, 2 acyl side, 3 side chain; on linkers, the order of the positions; unused ones are H or OH. Square brackets hold non-standard residues; d marks the D form. Peptide text beside a SMILES is read from it. * marks the point of attachment. d1Nal = N[C@H](Cc1cccc2ccccc12)C(=O)O; d(aIle) = CC[C@H](C)[C@@H](N)C(=O)O; X12 = O=C([C@@H]1CCCNN1[*:1])[*:2]; Hyp = O=C(O)[C@@H]1C[C@@H](O)CN1; X6 = O=C([C@H]1CCCNN1[*:1])[*:2]; dNMeF = CN[C@H](Cc1ccccc1)C(=O)O; Cha = N[C@@H](CC1CCCCC1)C(=O)O; dCha = N[C@H](CC1CCCCC1)C(=O)O; dChg = N[C@@H](C(=O)O)C1CCCCC1; dPhg = N[C@@H](C(=O)O)c1ccccc1; Chg = N[C@H](C(=O)O)C1CCCCC1; Phg = N[C@H](C(=O)O)c1ccccc1; Pip = O=C(O)[C@@H]1CCCCN1; dPip = O=C(O)[C@H]1CCCCN1; NMeA = CN[C@@H](C)C(=O)O; dNMeA = CN[C@H](C)C(=O)O; Bn = c1ccc(C*)cc1; Acm = CC(=O)NC* Bounds are passed on as bounds.

As to `CC[C@H](C)[C@@H]1NC(=O)[C@@H](Cc2cccc3ccccc23)NC(=O)[C@@H]2CCCN2C(=O)[C@@H](Cc2c[nH]cn2)NC(=O)[C@@H]2CCCCN2C(=O)[C@H]2CCCCN2C1=O` [Example 11, Cyclo[D-a-naphthalalanyl-L-isoleucyl-D-pipecolyl-L-pipecolyl-D-histidyl-L-prolyl]] (cyclo(I[dPip][Pip][dH]P[d1Nal])), for the setting “1 h, @ 10 (nM), read-out: [^3 H]OT: percent inhibition of radioligand at the given concentration”, the inhibition at 0.01 µM was determined as 39%.

Turning to `CC[C@H](C)[C@@H]1NC(=O)[C@@H](Cc2ccccc2)NC(=O)[C@@H]2CCCN2C(=O)[C@@H](Cc2ccccc2)NC(=O)[C@H](C)NC(=O)[C@@H](C)NC1=O` [Example 51, c-[D-Phenylalanyl-L-isoleucyl-D-alanyl-L-alanyl-D-phenylalanyl-L-prolyl]] (cyclo(A[dF]P[dF]I[dA])), the IC50 was over 10000 nM. Consider `CC[C@H](C)[C@@H]1NC(=O)[C@@H](Cc2ccccc2)NC(=O)[C@@H]2CCCN2C(=O)[C@@H](Cc2ccccc2)N(C)C(=O)[C@@H]2CCCN2C(=O)[C@H]2CCCN2C1=O` [Example 52, c-[D-Phenylalanyl-L-isoleucyl-D-prolyl-L-prolyl-N-methyl-D-phenylalanyl-L-prolyl]] (cyclo([dNMeF]P[dF]I[dP]P)), for which the half-maximal inhibitory concentration (IC50) came to 3400 nM.

Regarding `CC[C@H](C)[C@@H]1NC(=O)[C@@H](Cc2ccccc2)NC(=O)[C@@H]2CCCN2C(=O)[C@@H](Cc2ccccc2)NC(=O)[C@@H]2CCCN2C(=O)[C@H]2CCCN2C1=O` [Example 53, c-[D-Phenylalanyl-L-isoleucyl-D-prolyl-L-prolyl-D-phenylalanyl-L-prolyl]] (cyclo([dF]P[dF]I[dP]P)), the half-inhibitory concentration (IC50) came to 2600 nM. The same measure, in the same setting: the figure for `CC[C@H](C)[C@@H]1NC(=O)[C@@H](Cc2ccccc2)NC(=O)[C@@H]2CCCN2C(=O)[C@@H](Cc2ccccc2)NC(=O)[C@H](C)N(C)C(=O)[C@@H](C)N(C)C1=O` [Example 54, c-[D-Phenylalanyl-L-isoleucyl-N-methyl-D-alanyl-N-methyl-L-alanyl-D-phenylalanyl-L-prolyl]] (cyclo(I[dNMeA][NMeA][dF]P[dF])) is 3000 nM. On the same count and under the same terms, under `CC[C@H](C)[C@@H]1NC(=O)[C@@H](CC2CCCCC2)NC(=O)[C@@H]2CCCN2C(=O)[C@@H](Cc2ccccc2)NC(=O)[C@@H]2CCCN2C(=O)[C@H]2CCCN2C1=O` [Example 55] (cyclo([dCha]I[dP]P[dF]P)) stands 2500 nM. `O=C1N[C@@H](CC2CCCCC2)C(=O)N2CCC[C@@H]2C(=O)N2CCC[C@H]2C(=O)N[C@H](Cc2ccccc2)C(=O)N2CCC[C@H]2C(=O)N[C@@H]1Cc1ccccc1` [Example 56, c-[D-Phenylalanyl-L-cyclohexylalanyl-D-prolyl-L-prolyl-D-phenylalanyl-L-prolyl]] (cyclo([dF]P[dF][Cha][dP]P)): the IC50 was over 10000 nM.

Turning to `CC[C@H](C)[C@@H]1NC(=O)[C@@H](Cc2ccccc2)NC(=O)CNC(=O)[C@@H](CCC(N)=O)NC(=O)[C@@H]2CCCN2C(=O)[C@H]2CCCN2C1=O` [Example 57] (cyclo([dF]I[dP]P[dQ]G)), the IC50 is over 10000 nM. Turning to `CC[C@H](C)[C@@H]1NC(=O)[C@@H](Cc2ccccc2)NC(=O)[C@@H]2CCCN2C(=O)[C@@H](CSCNC(C)=O)NC(=O)[C@@H]2CCCN2C(=O)[C@H]2CCCN2C1=O` [Example 58, c-[D-Phenylalanyl-L-isoleucyl-D-prolyl-L-prolyl-D-cysteinyl(Acm)-L-prolyl]] (cyclo([dC](Acm)P[dF]I[dP]P)), the IC50 is over 10000 nM. Same read-out and setting: the figure for `CC[C@H](C)[C@@H]1NC(=O)[C@@H](Cc2ccccc2)NC(=O)[C@@H]2CCCN2C(=O)[C@@H](CSCc2ccccc2)NC(=O)[C@@H]2CCCN2C(=O)[C@H]2CCCN2C1=O` [Example 59, c-[D-Phenylalanyl-L-isoleucyl-D-prolyl-L-prolyl-D-crsteinyl(Bzl)-L-prolyl]] (cyclo([dC](Bn)P[dF]I[dP]P)) is over 1000 nM; for `CC[C@@H](C)[C@H]1NC(=O)[C@H](Cc2ccccc2)NC(=O)[C@H]2CCCN2C(=O)[C@H](Cc2ccccc2)NC(=O)[C@H]2CCCN2C(=O)[C@@H]2CCCN2C1=O` [Example 60, c-[L-Phenylalanyl-D-isoleucyl-L-prolyl-D-prolyl-L-phenylalanyl-D-prolyl]] (cyclo(F[dI]P[dP]F[dP])) it is over 10000 nM; for `CC[C@H](C)[C@@H]1NC(=O)[C@@H](Cc2ccccc2)NC(=O)[C@@H]2CCCN2C(=O)[C@@H]([C@H](C)OCc2ccccc2)NC(=O)[C@@H]2CCCN2C(=O)[C@H]2CCCN2C1=O` [Example 61, c-[D-Phenylalanyl-L-isoleucyl-D-prolyl-L-prolyl-D-threoninyl(Bzl)-L-prolyl]] (cyclo([dT](Bn)P[dF]I[dP]P)) it is over 10000 nM. On the same count and under the same terms, under `CC[C@H](C)[C@@H]1NC(=O)[C@@H](Cc2ccccc2)NC(=O)[C@@H]2CCCN2C(=O)[C@@H]([C@H](C)O)NC(=O)[C@@H]2CCCN2C(=O)[C@H]2CCCN2C1=O` [Example 62, c-[D-Phenylalanyl-L-isoleucyl-D-prolyl-L-prolyl-D-threoninyl-L-prolyl]] (cyclo([dT]P[dF]I[dP]P)) stands over 1000 nM; under `O=C1N[C@@H](c2ccccc2)C(=O)N2CCC[C@@H]2C(=O)N2CCC[C@H]2C(=O)N[C@H](Cc2ccccc2)C(=O)N2CCC[C@H]2C(=O)N[C@@H]1Cc1ccccc1` [Example 63, c-[D-Phenylalanyl-L-phenylglycyl-D-prolyl-L-prolyl-D-phenylalanyl-L-prolyl]] (cyclo([dF]P[dF][Phg][dP]P)), over 10000 nM; under `O=C1N[C@H](Cc2ccccc2)C(=O)N2CCC[C@H]2C(=O)N[C@H](Cc2ccccc2)C(=O)N2CCC[C@H]2C(=O)N2CCC[C@@H]2C(=O)N2CCC[C@@H]12` [Example 64, c-[D-Phenylalanyl-L-prolyl-D-prolyl-L-prolyl-D-phenylalanyl-L-prolyl]] (cyclo([dF]P[dF]P[dP]P)), over 10000 nM. On the same count and under the same terms, the figure for `CC[C@H](C)[C@@H]1NC(=O)[C@@H](Cc2ccccc2)NC(=O)[C@@H]2CCCN2C(=O)[C@@H](Cc2ccccc2)NC(=O)[C@H](C2CCCCC2)NC(=O)[C@@H](C2CCCCC2)NC1=O` [Example 65] (cyclo([Chg][dF]P[dF]I[dChg])) is over 10000 nM; for `CC[C@H](C)[C@@H]1NC(=O)[C@@H](Cc2ccccc2)NC(=O)[C@@H]2CCCN2C(=O)[C@@H](CCC(N)=O)NC(=O)[C@@H]2CCCN2C(=O)[C@H]2CCCN2C1=O` [Example 68, c-[D-Phenylalanyl-L-isoleucyl-D-prolyl-L-prolyl-D-α-glutaminyl-L-prolyl]] (cyclo([dF]I[dP]P[dQ]P)) it is over 10000 nM. On to `CC[C@H](C)[C@@H]1NC(=O)[C@@H](Cc2ccccc2)NC(=O)[C@@H]2CCCN2C(=O)[C@@H](Cc2ccccc2)NC(=O)[C@H](Cc2c[nH]cn2)NC(=O)[C@@H](Cc2c[nH]cn2)NC1=O` [Example 69, c[D-Phenylalanyl-L-isoleucyl-D-histidinyl-L-histidinyl-D-phenylalanyl-L-prolyl]] (cyclo(H[dF]P[dF]I[dH])), for which the concentration for half-maximal inhibition (IC50) was determined as 10000 nM. On the same count and under the same terms, the figure for `CC[C@H](C)[C@@H]1NC(=O)[C@@H](Cc2ccccc2)NC(=O)[C@@H]2CCCN2C(=O)[C@@H](Cc2ccccc2)NC(=O)[C@H](c2ccccc2)NC(=O)[C@@H](c2ccccc2)NC1=O` [Example 70, c-[D-Phenylalanyl-L-isoleucyl-D-phenylglycinyl-L-phenylglycinyl-D-phenylalanyl-L-prolyl]] (cyclo(I[dPhg][Phg][dF]P[dF])) is over 10000 nM.

Take `CC[C@H](C)[C@@H]1NC(=O)[C@@H](Cc2ccccc2)NC(=O)[C@@H]2CCCN2C(=O)[C@@H](Cc2ccccc2)NC(=O)[C@@H]2C[C@@H](O)CN2C(=O)[C@H]2CCCN2C1=O` [Example 71, c-[D-Phenylalanyl-L-isoleucyl-D-prolyl-L-trans-hydroxyprolyl-D-phenylalanyl-L-prolyl]] (cyclo([Hyp][dF]P[dF]I[dP])): the IC50 is over 10000 nM. Same read-out and setting: the figure for `C[C@@H](OCc1ccccc1)[C@@H]1NC(=O)[C@@H](Cc2ccccc2)NC(=O)[C@@H]2CCCN2C(=O)[C@@H](Cc2ccccc2)NC(=O)[C@@H]2CCCN2C(=O)[C@H]2CCCN2C1=O` [Example 72, c-[D-Phenylalanyl-L-(O-benzyl)-threoninyl-D-prolyl-L-prolyl-D-phenylalanyl-L-prolyl]] (cyclo([dF]P[dF]T(Bn)[dP]P)) is over 10000 nM; for `C[C@@H](O)[C@@H]1NC(=O)[C@@H](Cc2ccccc2)NC(=O)[C@@H]2CCCN2C(=O)[C@@H](Cc2ccccc2)NC(=O)[C@@H]2CCCN2C(=O)[C@H]2CCCN2C1=O` [Example 73, c-[D-Phenylalanyl-L-threoninyl-D-prolyl-L-prolyl-D-phenylalanyl-L-prolyl]] (cyclo([dF]P[dF]T[dP]P)) it is over 10000 nM; for `CC[C@H](C)[C@@H]1NC(=O)[C@@H](Cc2ccc(O)cc2)NC(=O)[C@@H]2CCCN2C(=O)[C@@H](Cc2ccccc2)NC(=O)[C@@H]2CCCNN2C(=O)[C@H]2CCCNN2C1=O` [Example 97] (cyclo([dY]I[X6][X12][dF]P)) it is over 10000 nM.

Take `CC[C@H](C)[C@@H]1NC(=O)[C@@H](Cc2ccccc2)NC(=O)[C@@H]2CCCN2C(=O)[C@@H](Cc2ccccc2)NC(=O)[C@H](CC(N)=O)NC(=O)[C@H](CCC(N)=O)NC1=O` [Example 100] (cyclo([dF]IQN[dF]P)): the IC50 stood at 5080 nM. On the same count and under the same terms, under `CCOc1ccc(C[C@H]2NC(=O)[C@@H]3CCCN3C(=O)[C@@H](Cc3ccccc3)NC(=O)[C@H](CC(N)=O)NC(=O)[C@@H](CCC(N)=O)NC(=O)[C@@H]([C@@H](C)CC)NC2=O)cc1` [Example 101] (cyclo(N[dF]P[dY](Et)[d(aIle)][dQ])) stands over 10000 nM.
